Results: patent publication US9850283B2, “Macrocyclic inhibitors of the PD-1/PD-L1 and CD80(B7-1)/PD-L1 protein/protein interactions” (BRISTOL-MYERS SQUIBB COMPANY, priority 2013, dated 2017)
Like-named read-outs stand apart in the source and are kept apart here. Starred links: 1 amine or outer side, 2 acyl side, 3 side chain; linkers in the order of their positions; H or OH if unused. Positions of bridges follow the written chain, without caps; N, C: chain ends. Non-standard residues stand in square brackets, D forms with d. Residues, ends and D or L forms follow the SMILES beside them. ξ: configuration not given here. X8 = COc1cccc(-c2[nH]c3ccccc3c2C[C@H](N[*:1])C(=O)[*:2])c1; Phe(3-CF3) = N[C@@H](Cc1cccc(C(F)(F)F)c1)C(=O)O; 1Nal = N[C@@H](Cc1cccc2ccccc12)C(=O)O; Bta = N[C@@H](Cc1csc2ccccc12)C(=O)O; Hyp = O=C(O)[C@@H]1C[C@@H](O)CN1; NMeF = CN[C@@H](Cc1ccccc1)C(=O)O; NMeNle = CCCC[C@H](NC)C(=O)O; NMeM = CN[C@@H](CCSC)C(=O)O; ξR = N=C(N)NCCCC(N)C(=O)O; NMeA = CN[C@@H](C)C(=O)O; Dab = NCC[C@H](N)C(=O)O; Dap = NC[C@H](N)C(=O)O; ξC = NC(CS)C(=O)O; Sar = CNCC(=O)O

Key:
[1] = target: T1, LK35.2-hPD-L1 cells / PE-labeled PD-1-Ig (Homo sapiens, UniProt Q9NZQ7); test: LK35.2-hPD-L1 cell binding high-content screening assay; format: cell-based; conditions: cluster symbol, read-out: CBA IC50 cluster
T1 construct: expressed in transfected cells; host or cells: LK35.2 mouse B cell line
How it was run: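 Mouse LK35.2 B cells stably overexpressing human PD-L1 were cultured overnight in RPMI with 10% FCS, then given compound and PE-labeled human PD-1-Ig (1 nM final) for 1 h at 37 °C. After three dPBS washes, bound fluorescence was quantified by high-content imaging.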

Human PD-L1/PD-1 = target: T2, Human PD-L1/PD-1 (Homo sapiens, UniProt Q9NZQ7); test: HTRF PD-1-Ig/PD-L1-His binding assay (human PD-L1); conditions: cluster symbol; read-out: HTRF IC50 cluster
T2 construct: made in house; host or cells: HEK293T
How it was run: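 Interaction of Fc-tagged soluble PD-1 with His-tagged soluble PD-L1 is monitored by time-resolved FRET. Donor is europium cryptate anti-Ig (1 nM final) and acceptor is APC anti-His (20 nM final). Assay buffer is dPBS with 0.1% BSA and 0.05% Tween-20.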

[2] = cell binding assay, cell line not given
[3] = cell line of CBA not given (LK35.2-hPD-L1 or 293T-hPD-L1)

T1 sequence (Q9NZQ7 19-290): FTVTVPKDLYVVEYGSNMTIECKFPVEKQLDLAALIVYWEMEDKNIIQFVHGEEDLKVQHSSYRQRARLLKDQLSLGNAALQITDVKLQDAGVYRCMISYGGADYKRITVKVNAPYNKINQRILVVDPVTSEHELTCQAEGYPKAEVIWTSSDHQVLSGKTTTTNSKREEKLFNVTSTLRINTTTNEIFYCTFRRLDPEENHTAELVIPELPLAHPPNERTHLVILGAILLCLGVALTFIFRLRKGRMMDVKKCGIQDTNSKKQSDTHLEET
T2 sequence (Q9NZQ7 with tags, fused parts or gaps): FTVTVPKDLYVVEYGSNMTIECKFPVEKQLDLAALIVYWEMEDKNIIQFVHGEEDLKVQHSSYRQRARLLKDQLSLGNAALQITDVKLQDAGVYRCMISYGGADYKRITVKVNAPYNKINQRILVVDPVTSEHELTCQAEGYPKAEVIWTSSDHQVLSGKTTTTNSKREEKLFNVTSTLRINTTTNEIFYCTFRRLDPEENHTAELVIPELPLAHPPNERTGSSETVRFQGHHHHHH

SMILES	IC50 [1, 2]	IC50 (Human PD-L1/PD-1)	IC50 [1, 3]
CCCC[C@H]1C(=O)N(C)CC(=O)N[C@@H](CC(=O)O)C(=O)N[C@@H](C(C)C)C(=O)N(C)[C@@H](Cc2ccccc2)C(=O)N[C@@H](Cc2ccc(O)cc2)C(=O)N(C)CC(=O)N[C@@H](Cc2cccc3ccccc23)C(=O)N[C@@H](Cc2ccc(O)cc2)C(=O)N[C@@H](CC(C)C)C(=O)N[C@H](C(=O)NCC(N)=O)CSCC(=O)N[C@@H](Cc2ccccc2)C(=O)N(C)[C@@H](Cc2ccccc2)C(=O)N1C [Example 3515] ({CH2CO}-F[NMeF][NMeNle][Sar]DV[NMeF]Y[Sar][1Nal]YLCG-NH2; thioether N-13)	4.78 to 72.9 nM	6.76 to 30.3 nM	–
CCCC[C@H]1C(=O)N(C)[C@@H](CCSC)C(=O)N[C@@H](CCCNC(=N)N)C(=O)NC(C(=O)NCC(N)=O)CSCC(=O)N[C@@H](Cc2ccc(O)cc2)C(=O)N(C)[C@@H](C)C(=O)N[C@@H](CC(N)=O)C(=O)N2CCC[C@H]2C(=O)N[C@@H](CN)C(=O)N[C@@H](CC(C)C)C(=O)N2C[C@H](O)C[C@H]2C(=O)N[C@@H](Cc2c[nH]c3ccccc23)C(=O)N[C@@H](CO)C(=O)N[C@@H](Cc2csc3ccccc23)C(=O)N1C (stereo partly shown) [Example 9084] ({CH2CO}-Y[NMeA]NP[Dap]L[Hyp]WS[Bta][NMeNle][NMeM]R[ξC]G-NH2; thioether N-14)	0.158 to 4.71 nM	0.385 to 6.74 nM	–
CCCC[C@H]1C(=O)N(C)[C@@H](CCCC)C(=O)N[C@@H](C)C(=O)N[C@H](C(N)=O)CSCC(=O)N[C@@H](Cc2ccc(O)cc2)C(=O)N(C)[C@@H](C)C(=O)N[C@@H](CCC(=O)O)C(=O)N2CCC[C@H]2C(=O)N[C@@H](Cc2cnc[nH]2)C(=O)N[C@@H](CCN)C(=O)N2C[C@H](O)C[C@H]2C(=O)N[C@@H](Cc2c[nH]c3ccccc23)C(=O)N[C@@H](CO)C(=O)N[C@@H](Cc2c[nH]c3ccccc23)C(=O)N1C [Example 1239] ({CH2CO}-Y[NMeA]EPH[Dab][Hyp]WSW[NMeNle][NMeNle]AC-NH2; thioether N-14)	–	6.76 to 30.3 nM	4.78 to 72.9 nM
CCCC[C@H]1C(=O)N(C)[C@@H](CCCC)C(=O)N[C@@H](C)C(=O)N[C@H](C(=O)NCC(N)=O)CSCC(=O)N[C@@H](Cc2ccc(O)cc2)C(=O)N(C)[C@@H](C)C(=O)N[C@@H](CCC(=O)O)C(=O)N2CCC[C@H]2C(=O)N[C@@H](Cc2cnc[nH]2)C(=O)N[C@@H](CC(C)C)C(=O)N2CCC[C@H]2C(=O)N[C@@H](Cc2c[nH]c3ccccc23)C(=O)N[C@@H](CO)C(=O)N[C@@H](Cc2c[nH]c3ccccc23)C(=O)N1C [Example 1164] ({CH2CO}-Y[NMeA]EPHLPWSW[NMeNle][NMeNle]ACG-NH2; thioether N-14)	–	6.76 to 30.3 nM	4.78 to 72.9 nM
CCCC[C@H]1C(=O)N(C)[C@@H](CCCC)C(=O)NC(CCCNC(=N)N)C(=O)N[C@H](C(=O)NCC(N)=O)CSCC(=O)N[C@@H](Cc2ccc(O)cc2)C(=O)N(C)[C@@H](C)C(=O)N[C@@H](CC(N)=O)C(=O)N2CCC[C@H]2C(=O)N[C@@H](CN)C(=O)N[C@@H](CC(C)C)C(=O)N2C[C@H](O)C[C@H]2C(=O)N[C@@H](Cc2c[nH]c3ccccc23)C(=O)N[C@@H](CO)C(=O)N[C@@H](Cc2c(-c3cccc(OC)c3)[nH]c3ccccc23)C(=O)N1C (stereo partly shown) [Example 7003] ({CH2CO}-Y[NMeA]NP[Dap]L[Hyp]WS[X8][NMeNle][NMeNle][ξR]CG-NH2; thioether N-14)	4.78 to 72.9 nM	0.385 to 6.74 nM	–
CCCC[C@H]1C(=O)N(C)[C@@H](CCCC)C(=O)N[C@@H](CCCNC(=N)N)C(=O)N[C@H](C(=O)NCC(N)=O)CSCC(=O)N[C@@H](Cc2cccc(C(F)(F)F)c2)C(=O)N(C)[C@@H](C)C(=O)N[C@@H](CC(N)=O)C(=O)N2CCC[C@H]2C(=O)N[C@@H](Cc2cnc[nH]2)C(=O)N[C@@H](CC(C)C)C(=O)N(C)CC(=O)N[C@@H](Cc2c[nH]c3ccccc23)C(=O)N[C@@H](CO)C(=O)N[C@@H](Cc2c[nH]c3ccccc23)C(=O)N1C [Example 1107] ({CH2CO}-[Phe(3-CF3)][NMeA]NPHL[Sar]WSW[NMeNle][NMeNle]RCG-NH2; thioether N-14)	–	> 30.5 nM	> 74.3 nM
CCCC[C@H]1C(=O)N(C)[C@@H](CCCC)C(=O)N[C@@H](CCN)C(=O)N[C@H](C(=O)NCC(N)=O)CSCC(=O)N[C@@H](Cc2ccc(O)cc2)C(=O)N(C)[C@@H](C)C(=O)N[C@@H](CC(N)=O)C(=O)N2CCC[C@H]2C(=O)N[C@@H](CN)C(=O)N[C@@H](CCC(N)=O)C(=O)N2C[C@H](O)C[C@H]2C(=O)N[C@@H](Cc2c[nH]c3ccccc23)C(=O)N[C@@H](CO)C(=O)N[C@@H](Cc2c[nH]c3ccccc23)C(=O)N1C [Example 5042] ({CH2CO}-Y[NMeA]NP[Dap]Q[Hyp]WSW[NMeNle][NMeNle][Dab]CG-NH2; thioether N-14)	0.158 to 4.71 nM	0.385 to 6.74 nM	–
CCCC[C@H]1C(=O)N(C)CC(=O)N[C@@H](CC(=O)O)C(=O)N[C@@H](C(C)C)C(=O)N(C)[C@@H](Cc2ccccc2)C(=O)N[C@@H](Cc2ccc(O)cc2)C(=O)N(C)CC(=O)N[C@@H](C)C(=O)N[C@@H](Cc2ccc(O)cc2)C(=O)N[C@@H](CC(C)C)C(=O)N[C@@H](C(=O)NCC(N)=O)CSCC(=O)N[C@@H](Cc2ccccc2)C(=O)N(C)[C@@H](Cc2ccccc2)C(=O)N1C [Example 1001] (HELM PEPTIDE1{[O=C(C[*:3])[*:2]].F.[meF].[CCCC[C@@H](C(=O)[*:2])N(C)[*:1]].[Sar].D.V.[meF].Y.[Sar].A.Y.L.[dC].G.[am]}$PEPTIDE1,PEPTIDE1,1:R3-14:R3$$$V2.0)	–	> 30.5 nM	> 74.3 nM
